Active and inactive are the calls of the source. No cut-off for these calls is given here.

The target of assay [1] is T1, Glutathione reductase, mitochondrial (Mus musculus) (UniProt P47791).
T1 sequence (whole entry): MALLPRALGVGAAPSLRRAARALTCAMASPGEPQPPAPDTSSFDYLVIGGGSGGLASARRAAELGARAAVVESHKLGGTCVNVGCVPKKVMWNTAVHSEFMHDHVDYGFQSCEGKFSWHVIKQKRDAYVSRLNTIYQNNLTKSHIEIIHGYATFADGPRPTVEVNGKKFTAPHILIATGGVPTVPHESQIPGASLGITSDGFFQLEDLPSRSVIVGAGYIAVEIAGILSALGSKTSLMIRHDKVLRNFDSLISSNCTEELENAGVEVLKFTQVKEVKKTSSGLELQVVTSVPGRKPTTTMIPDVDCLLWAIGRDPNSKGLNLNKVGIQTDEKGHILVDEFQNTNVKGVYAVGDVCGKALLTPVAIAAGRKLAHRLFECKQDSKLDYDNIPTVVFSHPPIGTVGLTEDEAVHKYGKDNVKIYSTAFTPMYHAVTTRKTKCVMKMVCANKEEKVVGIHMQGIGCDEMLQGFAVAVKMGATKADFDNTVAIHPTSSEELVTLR
Kind of assay: Inhibition of Mus musculus (mouse) glutathione reductase isolated from liver at 200 uM.

Assay [2] has as its target T2, Glutamate--cysteine ligase catalytic subunit (Mus musculus) (UniProt P97494).
T2 sequence (whole entry): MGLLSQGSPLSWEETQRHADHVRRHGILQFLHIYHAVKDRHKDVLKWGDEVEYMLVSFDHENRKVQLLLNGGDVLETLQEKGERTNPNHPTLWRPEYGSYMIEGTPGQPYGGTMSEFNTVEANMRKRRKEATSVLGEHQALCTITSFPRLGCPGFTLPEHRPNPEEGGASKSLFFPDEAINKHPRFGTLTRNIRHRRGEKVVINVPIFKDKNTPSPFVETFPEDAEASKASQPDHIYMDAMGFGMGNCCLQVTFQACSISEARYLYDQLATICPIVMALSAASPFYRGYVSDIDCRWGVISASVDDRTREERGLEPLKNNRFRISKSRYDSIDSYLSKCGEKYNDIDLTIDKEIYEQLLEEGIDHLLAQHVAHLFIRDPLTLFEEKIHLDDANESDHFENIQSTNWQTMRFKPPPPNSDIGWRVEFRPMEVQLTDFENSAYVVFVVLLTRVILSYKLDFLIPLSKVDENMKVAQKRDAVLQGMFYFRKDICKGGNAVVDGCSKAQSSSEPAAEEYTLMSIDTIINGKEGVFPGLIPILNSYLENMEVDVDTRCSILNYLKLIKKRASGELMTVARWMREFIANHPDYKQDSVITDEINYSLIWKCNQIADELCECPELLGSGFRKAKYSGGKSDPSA
Kind of assay: Inhibition of Mus musculus (mouse) glutamate cysteine ligase isolated from liver at 200 uM.

For assay [3], the target named is T3, Glutamate--cysteine ligase (Onchocerca volvulus) (UniProt Q9NFN6).
T3 sequence (whole entry): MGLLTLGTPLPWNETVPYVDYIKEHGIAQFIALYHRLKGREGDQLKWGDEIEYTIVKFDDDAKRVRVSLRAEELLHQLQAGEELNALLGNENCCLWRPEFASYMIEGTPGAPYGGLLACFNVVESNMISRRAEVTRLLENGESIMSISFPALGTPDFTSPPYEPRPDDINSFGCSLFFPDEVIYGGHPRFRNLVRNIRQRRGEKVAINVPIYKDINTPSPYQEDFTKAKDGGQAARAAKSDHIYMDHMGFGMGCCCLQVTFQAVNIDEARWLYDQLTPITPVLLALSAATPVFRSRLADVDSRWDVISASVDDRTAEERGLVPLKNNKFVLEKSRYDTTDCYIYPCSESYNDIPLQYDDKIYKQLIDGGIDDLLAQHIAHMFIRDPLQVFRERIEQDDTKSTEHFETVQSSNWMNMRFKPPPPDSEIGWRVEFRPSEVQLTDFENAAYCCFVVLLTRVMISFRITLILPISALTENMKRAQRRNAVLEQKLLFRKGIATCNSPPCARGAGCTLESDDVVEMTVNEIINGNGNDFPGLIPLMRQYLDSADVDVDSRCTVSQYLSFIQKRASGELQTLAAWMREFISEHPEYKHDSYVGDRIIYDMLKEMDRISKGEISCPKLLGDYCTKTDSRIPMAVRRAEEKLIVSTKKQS
Kind of assay: Inhibition of Setaria cervi glutamate cysteine ligase at 0.25 to 200 uM.

In assay [4] the target is T4, Probable glutathione reductase 2 (Caenorhabditis elegans) (UniProt P30635).
T4 sequence (whole entry): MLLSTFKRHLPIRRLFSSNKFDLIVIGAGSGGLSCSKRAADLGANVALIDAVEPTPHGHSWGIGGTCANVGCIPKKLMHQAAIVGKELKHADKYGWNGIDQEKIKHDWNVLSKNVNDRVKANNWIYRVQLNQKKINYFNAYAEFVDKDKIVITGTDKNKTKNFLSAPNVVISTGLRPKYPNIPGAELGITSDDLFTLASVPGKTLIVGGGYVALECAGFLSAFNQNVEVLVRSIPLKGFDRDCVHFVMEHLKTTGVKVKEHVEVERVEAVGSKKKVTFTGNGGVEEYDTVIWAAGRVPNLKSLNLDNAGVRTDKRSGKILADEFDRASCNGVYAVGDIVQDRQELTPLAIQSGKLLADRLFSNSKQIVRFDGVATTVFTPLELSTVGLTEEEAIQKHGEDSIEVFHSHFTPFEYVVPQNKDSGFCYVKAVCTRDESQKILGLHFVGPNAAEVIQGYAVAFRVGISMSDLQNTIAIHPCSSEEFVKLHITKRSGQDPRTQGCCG
Kind of assay: Inhibition of Setaria cervi glutathione reductase at 2 to 200 uM.

Broadly, the inhibition is the drop in the measured response relative to a control, in per cent. For the compound `CO[C@@H]1[C@H]2OC(C)(C)O[C@H]2O[C@@H]1C1CC(=O)N(Cc2ccccc2)C(=O)N1CCC(C)CC(C)C` (stereo partly drawn), the inhibition entry in assay [1] is “inactive”.

Turning to `CC1(C)O[C@H]2O[C@H](C(CC(=O)NO)N3CCCCC3)[C@H](OCc3ccccc3)[C@H]2O1` (stereo partly drawn), the inhibition entry in assay [1] was “inactive”. As for `CCCCCCCNC(CC(=O)NO)[C@H]1O[C@@H]2OC(C)(C)O[C@@H]2[C@H]1OCc1ccccc1` (stereo partly drawn), the inhibition entry in assay [1] was “inactive”. In turn, `CO[C@@H]1[C@H]2OC(C)(C)O[C@H]2O[C@@H]1[C@H](CC(N)=O)N(Cc1ccccc1)C(=O)Nc1cccc(C(C)=O)c1` registered an inhibition in assay [2] of 18%.

Consider `CC1(C)O[C@H]2O[C@H](C(CC(=O)NO)NCc3ccccc3)[C@H](OCc3ccccc3)[C@H]2O1` (stereo partly drawn), for which, in assay [1], the inhibition result is “inactive”.

On to `CC1(C)O[C@H]2O[C@H]([C@@H]3CC(=O)N(Cc4ccccc4)C(=O)N3Cc3ccccc3)[C@H](OCc3ccccc3)[C@H]2O1`, for which the inhibition result in assay [1] is “inactive”.

In the case of `CCOC(=O)C[C@@H](Nc1ccccc1O)[C@H]1O[C@@H]2OC(C)(C)O[C@@H]2[C@H]1OC`, in assay [1], the inhibition result was “inactive”.

On to `CCOC(=O)CC([C@H]1O[C@@H]2OC(C)(C)O[C@@H]2[C@H]1OC)N(CCC(C)CC(C)C)C(=O)NCc1ccccc1` (stereo partly drawn), for which the inhibition result in assay [1] is “inactive”. Same read-out and setting: in the case of `CCCCCCCCCCCCNC(CC(=O)NO)[C@H]1O[C@@H]2OC(C)(C)O[C@@H]2[C@H]1OCc1ccccc1` (stereo partly drawn) it was “inactive”; in that of `CCCc1nccn1C(CC(=O)OCC)[C@H]1O[C@@H]2OC(C)(C)O[C@@H]2[C@H]1OC` (stereo partly drawn), “inactive”; in that of `CO[C@@H]1[C@H]2OC(C)(C)O[C@H]2O[C@H]1C(CC(=O)O)NCCC(C)CC(C)C` (stereo partly drawn), “inactive”. `NCCSSCCN` showed an inhibition in assay [3] of 19%. The compound `CN(C)c1ccc2nc3ccc(=[N+](C)C)cc-3sc2c1` yielded an inhibition in assay [4] of 24%. In assay [1], `CCCCCCCCCCCCCCCCNC(CC(=O)NO)[C@H]1O[C@@H]2OC(C)(C)O[C@@H]2[C@H]1OC` (stereo partly drawn) showed an inhibition of 71%. On to `CCOC(=O)CC(Nc1ccco1)[C@H]1O[C@@H]2OC(C)(C)O[C@@H]2[C@H]1OC` (stereo partly drawn), for which the inhibition entry in assay [1] was “inactive”.

Take `CC(=O)c1cccc(N2C(=O)[C@H](CC(C)C)N(C[C@H]3O[C@@H]4OC(C)(C)O[C@@H]4[C@H]3OCc3ccccc3)C2=O)c1`: in assay [1], the inhibition entry was “inactive”.

As to `CO[C@@H]1[C@H]2OC(C)(C)O[C@H]2O[C@@H]1[C@@H]1CC(=O)N(Cc2ccccc2)C(=O)N1Cc1ccccc1`, the inhibition entry in assay [2] is “inactive”. With `CCCCCCCN[C@@H](CC(=O)OCC)[C@@H]1O[C@@H]2OC(C)(C)O[C@@H]2[C@H]1OC`, the inhibition entry in assay [1] was “inactive”.

As to `COc1ccc(CN2C(=O)N(c3ccc(C(C)=O)cc3)C(=O)C[C@H]2[C@H]2O[C@@H]3OC(C)(C)O[C@@H]3[C@H]2OCc2ccccc2)cc1`, the inhibition result in assay [1] was “inactive”. Turning to `CCOC(=O)CC([C@H]1O[C@@H]2OC(C)(C)O[C@@H]2[C@H]1OC)N1CCC[C@H]1C(=O)OCC1c2ccccc2-c2ccccc21` (stereo partly drawn), the inhibition entry in assay [1] was “inactive”. Still for that read-out and setting: in the case of `CCOC(=O)CC(Nc1ccco1)[C@H]1O[C@@H]2OC(C)(C)O[C@@H]2[C@H]1OCc1ccccc1` (stereo partly drawn) it was “inactive”.

Take `CCOC(=O)C[C@H](C[C@H]1O[C@@H]2OC(C)(C)O[C@@H]2[C@H]1OC)NCc1ccccc1O`: the inhibition entry in assay [1] is “inactive”.

As to `CCCCCCCNC(CC(=O)O)[C@@H]1O[C@@H]2OC(C)(C)O[C@@H]2[C@H]1OC` (stereo partly drawn), the inhibition entry in assay [1] was “inactive”.

These data come from ChEMBL document CHEMBL3045894, “GLUTATHIONE SYNTHESIS IN FILARIAL WORMS: AN ATTRACTIVE TARGET FOR THE DESIGN AND SYNTHESIS OF NEW ANTIFILARIALS” (Med Chem Res, 2004).
